Laboratory results reported in patent US8476434B2, “Protein kinase modulators and method of use” (Amgen Inc., priority 2004, dated 2013).

Each molecule was assayed against T1, LCK KD GST (225-509) (Homo sapiens, UniProt P06239) (assay: LCK Homogenous Time Resolved Fluorescent (HTRF) kinase assay).
T1 construct: LCK KD GST (225-509); GST
Assay type: biochemical
Description: The LCK HTRF assay begins with LCK in the presence of ATP phosphorylating the biotinylated peptide Gastrin. The reaction incubates for 90 min. To quench the assay detection reagents are added which both stop the reaction by diluting out the enzyme and chelating the metals due to the presence of EDTA. Once the detection reagents are added the assay incubates for 30 min to allow for equilibration of the detection reagents.
Buffer conditions are as follows: 50 mM HEPES pH 7.5, 50 mM NaCl, 20 mM MgCl, 5 mM MnCl, 2 mM DTT, 0.05% BSA.
The assay is quenched and stopped with 160 μL of detection reagent. Detection reagents are as follows: Buffer made of 50 mM Tris, pH 7.5, 100 mM NaCl, 3 mM EDTA, 0.05% BSA, 0.1% Tween20.
The assay plate is read in either a Discovery or a RubyStar.

T1 sequence (P06239 225-509): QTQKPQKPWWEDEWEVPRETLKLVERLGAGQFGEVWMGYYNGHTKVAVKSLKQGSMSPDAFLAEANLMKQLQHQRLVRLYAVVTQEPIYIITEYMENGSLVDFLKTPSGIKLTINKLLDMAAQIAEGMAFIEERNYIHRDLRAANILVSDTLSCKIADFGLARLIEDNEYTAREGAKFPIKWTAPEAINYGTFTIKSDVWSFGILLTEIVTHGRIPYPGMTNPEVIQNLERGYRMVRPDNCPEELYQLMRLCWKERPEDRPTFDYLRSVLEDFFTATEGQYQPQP

IC50, < 1 µM:
Cc1ccc(C(=O)Nc2ccc(C(F)(F)F)cc2)cc1Nc1ncccc1-c1ccncn1 [4-methyl-3-((3-(4-pyrimidinyl)-2-pyridinyl)amino)-N-(4-(trifluoromethyl)phenyl)benzamide]
CNc1ncnc(-c2cccnc2Oc2ccc(F)c(C(=O)Nc3cc(C(F)(F)C(F)(F)F)ccc3N(C)CCCN(C)C)c2)n1 [N-(2-((3-(dimethylamino)propyl)(methyl)amino)-5-(pentafluoroethyl)phenyl)-2-fluoro-5-((3-(4-(methylamino)-1,3,5-triazin-2-yl)-2-pyridinyl)oxy)benzamide]
CNc1cc(-c2cccnc2Oc2cc(C(=O)Nc3cccc(C(F)(F)F)c3)ccc2C)ncn1 [4-methyl-3-((3-(6-(methylamino)-4-pyrimidinyl)-2-pyridinyl)oxy)-N-(3-(trifluoromethyl)phenyl)benzamide]
CNc1nccc(-c2cccnc2Oc2ccc(NC(=O)Nc3cc(C(C)(C)C)ccc3OC)cc2C)n1 [N-(5-(1,1-dimethylethyl)-2-(methyloxy)phenyl)-N′-(3-methyl-4-((3-(2-(methylamino)-4-pyrimidinyl)-2-pyridinyl)oxy)phenyl)urea]
CNc1ncnc(-c2cccnc2Oc2cc(C(=O)Nc3cc(C(C)(C)C)on3)ccc2C)n1 [N-(5-(1,1-dimethylethyl)-3-isoxazolyl)-4-methyl-3-((3-(4-(methylamino)-1,3,5-triazin-2-yl)-2-pyridinyl)oxy)benzamide]
CNc1nccc(-c2cccnc2Oc2ccc(NC(=O)Nc3cc(Cl)ccc3C)cc2C)n1 [N-(5-chloro-2-methylphenyl)-N′-(3-methyl-4-((3-(2-(methylamino)-4-pyrimidinyl)-2-pyridinyl)oxy)phenyl)urea]
CNc1nccc(-c2cccnc2Oc2cc(C(=O)Nc3ccc(C(C)C)cc3)ccc2C)n1 [4-methyl-3-((3-(2-(methylamino)-4-pyrimidinyl)-2-pyridinyl)oxy)-N-(4-(1-methylethyl)phenyl)benzamide]
CNc1nccc(-c2cccnc2Oc2cc(Br)cc(C(=O)Nc3cc(C(F)(F)F)ccc3N(C)[C@H]3CCN(C)C3)c2)n1 [3-bromo-5-((3-(2-(methylamino)-4-pyrimidinyl)-2-pyridinyl)oxy)-N-(2-(methyl((3S)-1-methyl-3-pyrrolidinyl)amino)-5-(trifluoromethyl)phenyl)benzamide]
CNc1nccc(-c2cccnc2Oc2cc(C(=O)Nc3cc(C(C)(C)C)nn3-c3ccccc3)ccc2C)n1 [N-(3-(1,1-dimethylethyl)-1-phenyl-1H-pyrazol-5-yl)-4-methyl-3-((3-(2-(methylamino)-4-pyrimidinyl)-2-pyridinyl)oxy)benzamide]
CNc1ncnc(-c2cccnc2Oc2ccc(NC(=O)Nc3cc(C(F)(F)F)ccc3CN3CC[C@@H](N(C)C)C3)c3ccccc23)n1 [N-(2-(((3R)-3-(dimethylamino)-1-pyrrolidinyl)methyl)-5-(trifluoromethyl)phenyl)-N′-(4-((3-(4-(methylamino)-1,3,5-triazin-2-yl)-2-pyridinyl)oxy)-1-naphthalenyl)urea]
CNc1cc(-c2cccnc2Oc2cc(NC(=O)c3cccc(C(C)C)c3)ccc2C)ccn1 [3-(1-methylethyl)-N-(4-methyl-3-((2′-(methylamino)-3,4′-bipyridin-2-yl)oxy)phenyl)benzamide]
COc1ccc(C2CCCCC2)cc1NC(=O)c1ccc(C)c(Oc2ncccc2-c2ccncn2)c1 [N-(5-cyclohexyl-2-(methyloxy)phenyl)-4-methyl-3-((3-(4-pyrimidinyl)-2-pyridinyl)oxy)benzamide]
CNc1nccc(-c2cccnc2Oc2ccc(NC(=O)Nc3cccc(Br)c3)cc2C)n1 [N-(3-bromophenyl)-N′-(3-methyl-4-((3-(2-(methylamino)-4-pyrimidinyl)-2-pyridinyl)oxy)phenyl)urea]
CCNc1ncnc(-c2cccnc2Oc2cc(C(=O)Nc3cc(C4CCCCC4)ccc3OC)ccc2C)n1 [N-(5-cyclohexyl-2-(methyloxy)phenyl)-3-((3-(4-(ethylamino)-1,3,5-triazin-2-yl)-2-pyridinyl)oxy)-4-methylbenzamide]
CNc1ncnc(-c2cccnc2Oc2ccc(NC(=O)Nc3cc(C(F)(F)F)ccc3N(C)CCCN(C)C)c3ccccc23)n1 [N-(2-((3-(dimethylamino)propyl)(methyl)amino)-5-(trifluoromethyl)phenyl)-N′-(4-((3-(4-(methylamino)-1,3,5-triazin-2-yl)-2-pyridinyl)oxy)-1-naphthalenyl)urea]
CNc1ncnc(-c2cccnc2Oc2cc(C(=O)Nc3cc(C(F)(F)F)ccc3N(C)CCCN(C)C)ccc2C)n1 [N-(2-((3-(dimethylamino)propyl)(methyl)amino)-5-(trifluoromethyl)phenyl)-4-methyl-3-((3-(4-(methylamino)-1,3,5-triazin-2-yl)-2-pyridinyl)oxy)benzamide]
CNc1ncnc(-c2cccnc2Oc2cc(C(=O)Nc3cccc(OCc4ccccc4)c3)ccc2C)n1 [4-methyl-3-((3-(4-(methylamino)-1,3,5-triazin-2-yl)-2-pyridinyl)oxy)-N-(3-((phenylmethyl)oxy)phenyl)benzamide]
CNc1nccc(-c2cccnc2Oc2cc(C(=O)Nc3cc(C(F)(F)F)ccc3N3CC[C@H](N(C)C)C3)ccc2C)n1 [N-(2-((3S)-3-(dimethylamino)-1-pyrrolidinyl)-5-(trifluoromethyl)phenyl)-4-methyl-3-((3-(2-(methylamino)-4-pyrimidinyl)-2-pyridinyl)oxy)benzamide]
Cc1ccc(C(=O)N[C@H](C)C2CCCCC2)cc1Nc1ncccc1-c1ccncn1 [N-((1R)-1-cyclohexylethyl)-4-methyl-3-((3-(4-pyrimidinyl)-2-pyridinyl)amino)benzamide]
CNc1nccc(-c2cccnc2Oc2ccc(NC(=O)Nc3cc(C(F)(F)F)ccc3OCCN3CCCC3)cc2C)n1 [N-(3-methyl-4-((3-(2-(methylamino)-4-pyrimidinyl)-2-pyridinyl)oxy)phenyl)-N′-(2-((2-(1-pyrrolidinyl)ethyl)oxy)-5-(trifluoromethyl)phenyl)urea]
CNc1nccc(-c2cccnc2Oc2cc(C(=O)Nc3cc(C(F)(F)F)ccc3N(C)C3CCN(C)CC3)c(F)cc2C)n1 [2-fluoro-4-methyl-5-((3-(2-(methylamino)-4-pyrimidinyl)-2-pyridinyl)oxy)-N-(2-(methyl(1-methyl-4-piperidinyl)amino)-5-(trifluoromethyl)phenyl)benzamide]
CNc1nccc(-c2cccnc2Oc2cccc(NC(=O)c3cc(C(C)(C)C)ccc3OC)c2)n1 [5-(1,1-dimethylethyl)-N-(3-((3-(2-(methylamino)-4-pyrimidinyl)-2-pyridinyl)oxy)phenyl)-2-(methyloxy)benzamide]
CNc1cc(-c2cccnc2Oc2cc(C(=O)Nc3cc(C(F)(F)F)ccc3N(C)CCCN(C)C)ccc2C)ccn1 [N-(2-((3-(dimethylamino)propyl)(methyl)amino)-5-(trifluoromethyl)phenyl)-4-methyl-3-((2′-(methylamino)-3,4′-bipyridin-2-yl)oxy)benzamide]
CNc1nccc(-c2cccnc2Oc2ccc(F)c(C(=O)Nc3cc(C(F)(F)F)cc(Cl)c3N(C)CCCN(C)C)c2)n1 [N-(3-chloro-2-((3-(dimethylamino)propyl)(methyl)amino)-5-(trifluoromethyl)phenyl)-2-fluoro-5-((3-(2-(methylamino)-4-pyrimidinyl)-2-pyridinyl)oxy)benzamide]
CNc1cc(-c2cccnc2Oc2ccc(F)c(C(=O)Nc3cc(C(C)(C)C)ccc3N(C)CCCN(C)C)c2)ccn1 [N-(2-((3-(dimethylamino)propyl)(methyl)amino)-5-(1,1-dimethylethyl)phenyl)-2-fluoro-5-((2′-(methylamino)-3,4′-bipyridin-2-yl)oxy)benzamide]
CNc1ncnc(-c2cccnc2Oc2cc(C(=O)Nc3cc(C(F)(F)F)ccc3Cl)ccc2C)n1 [N-(2-chloro-5-(trifluoromethyl)phenyl)-4-methyl-3-((3-(4-(methylamino)-1,3,5-triazin-2-yl)-2-pyridinyl)oxy)benzamide]
CNc1nccc(-c2cccnc2Oc2ccc(NC(=O)Nc3cc(C(F)(F)F)ccc3Cl)cc2C)n1 [N-(2-chloro-5-(trifluoromethyl)phenyl)-N′-(3-methyl-4-((3-(2-(methylamino)-4-pyrimidinyl)-2-pyridinyl)oxy)phenyl)urea]
CCN(CC)CCNc1nccc(-c2cccnc2Oc2cc(C(=O)Nc3cc(C(F)(F)F)ccc3N3CCOCC3)ccc2C)n1 [3-((3-(2-((2-(diethylamino)ethyl)amino)-4-pyrimidinyl)-2-pyridinyl)oxy)-4-methyl-N-(2-(4-morpholinyl)-5-(trifluoromethyl)phenyl)benzamide]
CNc1nccc(-c2cc(N(C)CCCN(C)C)cnc2Oc2cc(C(=O)Nc3cccc(C(C)C)c3)ccc2C)n1 [3-((5-((3-(dimethylamino)propyl)(methyl)amino)-3-(2-(methylamino)-4-pyrimidinyl)-2-pyridinyl)oxy)-4-methyl-N-(3-(1-methylethyl)phenyl)benzamide]
CNc1ncnc(-c2cccnc2Oc2cc(C(=O)Nc3cccc(C(C)C)c3)ccc2C)n1 [4-methyl-3-((3-(4-(methylamino)-1,3,5-triazin-2-yl)-2-pyridinyl)oxy)-N-(3-(1-methylethyl)phenyl)benzamide]
CNc1ncnc(-c2cccnc2Oc2ccc(F)c(C(=O)Nc3cc(C(C)C)ccc3N(C)CCCN(C)C)c2)n1 [N-(2-((3-(dimethylamino)propyl)(methyl)amino)-5-(1-methylethyl)phenyl)-2-fluoro-5-((3-(4-(methylamino)-1,3,5-triazin-2-yl)-2-pyridinyl)oxy)benzamide]
